We go through 10 compounds from patent publication US12440496B2, “Natriuretic peptide receptor a agonists useful for the treatment of cardiometabolic diseases, kidney disease and diabetes” (Merck Sharp & Dohme LLC, priority 2019, dated 2025).

Broadly, the EC50 is the concentration giving half of the maximal effect. The low end stands for an effect from little substance, the high end for a need for much substance.

The target in the assay is T1, hNPRA (Homo sapiens, UniProt P16066).
T1 construct: expressed in transfected cells
T1 sequence (P16066 33-1061): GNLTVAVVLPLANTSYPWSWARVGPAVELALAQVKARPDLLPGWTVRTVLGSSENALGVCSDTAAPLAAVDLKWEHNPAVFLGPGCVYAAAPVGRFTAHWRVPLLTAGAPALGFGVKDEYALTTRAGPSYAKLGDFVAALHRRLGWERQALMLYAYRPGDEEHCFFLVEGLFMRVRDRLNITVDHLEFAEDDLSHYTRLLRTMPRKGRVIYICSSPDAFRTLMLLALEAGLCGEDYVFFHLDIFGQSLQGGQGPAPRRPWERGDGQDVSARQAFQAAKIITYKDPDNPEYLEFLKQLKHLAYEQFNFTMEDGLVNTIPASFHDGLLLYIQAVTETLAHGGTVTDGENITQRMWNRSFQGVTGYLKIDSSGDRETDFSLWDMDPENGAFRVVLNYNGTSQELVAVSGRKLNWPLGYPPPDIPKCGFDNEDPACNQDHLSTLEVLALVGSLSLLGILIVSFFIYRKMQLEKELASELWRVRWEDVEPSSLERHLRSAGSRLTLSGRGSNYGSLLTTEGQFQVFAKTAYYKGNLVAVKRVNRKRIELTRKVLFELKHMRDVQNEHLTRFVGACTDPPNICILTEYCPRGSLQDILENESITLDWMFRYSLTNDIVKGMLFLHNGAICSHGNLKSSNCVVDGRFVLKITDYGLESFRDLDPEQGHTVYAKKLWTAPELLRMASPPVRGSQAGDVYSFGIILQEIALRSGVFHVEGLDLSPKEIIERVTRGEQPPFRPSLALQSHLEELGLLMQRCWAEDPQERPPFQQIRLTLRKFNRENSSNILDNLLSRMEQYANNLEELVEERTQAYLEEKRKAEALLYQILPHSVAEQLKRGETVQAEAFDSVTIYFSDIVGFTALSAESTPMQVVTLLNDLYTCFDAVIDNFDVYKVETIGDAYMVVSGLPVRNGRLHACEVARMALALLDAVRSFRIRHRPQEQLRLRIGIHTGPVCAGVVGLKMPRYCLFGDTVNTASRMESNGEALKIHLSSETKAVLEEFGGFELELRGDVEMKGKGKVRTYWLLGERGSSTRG
Kind of assay: NPRA Functional Cell Assay (cGMP HTRF, NPRA HEK JumpIn stable cells). The class given is cell-based. As to conditions: cGMP production, 1 hour at 37° C., 10-point dose response. In outline: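 cGMP HTRF read-out after 1 hour compound treatment at 37° C. of human NPRA-expressing HEK JumpIn cells, 1500 cells/well, in buffer with phosphodiesterase inhibitors IBMX and RO20 (100 uM each). Signal converted to [cGMP] by calibration curve; EC50s fitted by 4-parameter logistic; 50 nM h-ANP as positive response.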
The compound `CC1([C@H]2CCc3nc4sc(C(=O)N[C@H](CCN5CCC(O)CC5)c5ccc(-c6ccnnc6)nc5)nc4cc3C2)CC1` [Example 264, (S)-N-((R)-3-(4-hydroxypiperidin-1-yl)-1-(6-(pyridazin-4-yl)pyridin-3-yl)propyl)-7-(1-methylcyclopropyl)-5,6,7,8-tetrahydrothiazolo[5,4-b]quinoline-2-carboxamide] registered a 50% effective concentration (EC50) of 113 nM.
The figure for `CC(C)[C@]1(F)CCc2nc3sc(C(=O)N[C@H](CCN4CCC(O)CC4)c4ccc(-c5ccnnc5)nc4)nc3cc2C1` [Example 265, (S)-7-fluoro-N-((R)-3-(4-hydroxypiperidin-1-yl)-1-(6-(pyridazin-4-yl)pyridin-3-yl)propyl)-7-isopropyl-5,6,7,8-tetrahydrothiazolo[5,4-b]quinoline-2-carboxamide] is 248 nM; for `CC(C)(C)[C@H]1CCc2nc3sc(C(=O)N[C@H](CCN4CCC(O)CC4)c4cnc(-c5ccnnc5)c(F)c4)nc3cc2C1` [Example 266, (S)-7-(tert-butyl)-N-((R)-1-(5-fluoro-6-(pyridazin-4-yl)pyridin-3-yl)-3-(4-hydroxypiperidin-1-yl)propyl)-5,6,7,8-tetrahydrothiazolo[5,4-b]quinoline-2-carboxamide] it is 142 nM; for `CC1([C@H]2CCc3nc4sc(C(=O)N[C@H](CCN5CCC(O)CC5)c5ccc(-c6cn[nH]c6)cc5)nc4cc3C2)CC1` [Example 267, (S)-N-((R)-1-(4-(1H-pyrazol-4-yl)phenyl)-3-(4-hydroxypiperidin-1-yl)propyl)-7-(1-methylcyclopropyl)-5,6,7,8-tetrahydrothiazolo[5,4-b]quinoline-2-carboxamide] it is 655 nM.
On to `O=C(N[C@H](CCN1CCC(O)CC1)c1ccc(-c2cn[nH]c2)cc1)c1nc2cc3c(nc2s1)CC[C@H](C1(C(F)(F)F)CC1)C3` [Example 268, (S)-N-((R)-1-(4-(1H-pyrazol-4-yl)phenyl)-3-(4-hydroxypiperidin-1-yl)propyl)-7-(1-(trifluoromethyl)cyclopropyl)-5,6,7,8-tetrahydrothiazolo[5,4-b]quinoline-2-carboxamide], for which the EC50 stood at 2030 nM.
The compound `COC(=O)C1CCN(CC[C@@H](NC(=O)c2nc3cc4c(nc3s2)CC[C@@](F)(C(C)C)C4)c2ccc(-c3ccnnc3)nc2)CC1` [Example 269, methyl 1-((R)-3-((S)-7-fluoro-7-isopropyl-5,6,7,8-tetrahydrothiazolo[5,4-b]quinoline-2-carboxamido)-3-(6-(pyridazin-4-yl)pyridin-3-yl)propyl)piperidine-4-carboxylate] gave an EC50 of 1850 nM.
On to `CC(C)[C@]1(F)CCc2nc3sc(C(=O)N[C@H](CCN4CCC(C(=O)O)CC4)c4ccc(-c5ccnnc5)nc4)nc3cc2C1` [Example 270, 1-((R)-3-((S)-7-fluoro-7-isopropyl-5,6,7,8-tetrahydrothiazolo[5,4-b]quinoline-2-carboxamido)-3-(6-(pyridazin-4-yl)pyridin-3-yl)propyl)piperidine-4-carboxylic acid], for which the EC50 turned out to be 1210 nM.
Regarding `CC(C)(C)[C@@H]1CCc2nc3sc(C(=O)N[C@H](CCN4CCC(c5nn[nH]n5)CC4)c4ccc(-c5cnc(O)c(F)c5)cc4)nc3cc2C1` [Example 271, (R)-N-((R)-3-(4-(2H-tetrazol-5-yl)piperidin-1-yl)-1-(4-(5-fluoro-6-hydroxypyridin-3-yl)phenyl)propyl)-7-(tert-butyl)-5,6,7,8-tetrahydrothiazolo[5,4-b]quinoline-2-carboxamide], the EC50 worked out at 1100 nM.
As for `CC(C)(C)[C@H]1CCc2nc3sc(C(=O)NC(CCN4CCCC4)c4ccncc4)nc3cc2C1` (stereo partly drawn) [Example 272, (7S)-7-(tert-butyl)-N-(1-(pyridin-4-yl)-3-(pyrrolidin-1-yl)propyl)-5,6,7,8-tetrahydrothiazolo[5,4-b]quinoline-2-carboxamide], the EC50 was 940 nM.
With `CC(C)(C)[C@H]1CCc2nc3sc(C(=O)N[C@H](CCN4CCC(O)CC4)c4ccc(N5CCOCS5(=O)=O)nc4)nc3cc2C1` [Example 273, (S)-7-(tert-butyl)-N-((R)-1-(6-(3,3-dioxido-1,3,4-oxathiazinan-4-yl)pyridin-3-yl)-3-(4-hydroxypiperidin-1-yl)propyl)-5,6,7,8-tetrahydrothiazolo[5,4-b]quinoline-2-carboxamide], a half-maximal response (EC50) required 182 nM.
